Holding throughout (assay type): cell-based, Human
One assay relates to Hep3B2 (FGFR3/4+++). Briefly: In vitro growth inhibition of Hep3B2 tumor cells (MTT/CCK8). The settings on record: Homo sapiens, Hep3B; in vitro growth inhibition (or induction of apoptosis), cells cultured 3 to 5 days, MTT (CCK8); read-out: IC50 Hep3B2 (FGFR3/4+++).
The test system of another assay is KCL-22 (BCR-ABL). Briefly: In vitro growth inhibition of KCL-22 tumor cells (MTT/CCK8). Conditions: Homo sapiens, KCL-22; in vitro growth inhibition (or induction of apoptosis), cells cultured 3 to 5 days, MTT (CCK8); read-out: IC50 KCL-22 (BCR-ABL).
A further assay has as its system KATO III (FGFR2 amp). The experiment in a line: In vitro growth inhibition of KATO III tumor cells (MTT/CCK8). The settings on record: Homo sapiens, KATO III; in vitro growth inhibition (or induction of apoptosis), cells cultured 3 to 5 days, MTT (CCK8); read-out: IC50 KATO III (FGFR2 amp).
The next assay concerns MOLM-13 (FLT3-ITD). Briefly: In vitro growth inhibition of MOLM-13 tumor cells (MTT/CCK8). Conditions: Homo sapiens, MOLM-13; in vitro growth inhibition (or induction of apoptosis), cells cultured 3 to 5 days, MTT (CCK8); read-out: IC50 MOLM-13 (FLT3-ITD).
Another assay deals with H1703 (PDGFRa amp). Briefly: In vitro growth inhibition of H1703 tumor cells (MTT/CCK8). Conditions: Homo sapiens, NCI-H1703; in vitro growth inhibition (or induction of apoptosis), cells cultured 3 to 5 days, MTT (CCK8); read-out: IC50 H1703 (PDGFRa amp).
For the next assay, the system named is Kasumi-1 (KIT N822K). The experiment in a line: In vitro growth inhibition of Kasumi-1 tumor cells (MTT/CCK8). The settings on record: Homo sapiens, Kasumi 1; in vitro growth inhibition (or induction of apoptosis), cells cultured 3 to 5 days, MTT (CCK8); read-out: IC50 Kasumi-1 (KIT N822K).
In a further assay the test system is H1581 (FGFR1 amp). Briefly: In vitro growth inhibition of H1581 tumor cells (MTT/CCK8). The settings on record: Homo sapiens, NCI-H1581; in vitro growth inhibition (or induction of apoptosis), cells cultured 3 to 5 days, MTT (CCK8); read-out: IC50 H1581 (FGFR1 amp).
For a further assay, the system named is Karpas 299 (NPM-ALK). The experiment in a line: In vitro growth inhibition of Karpas 299 tumor cells (MTT/CCK8). Conditions: Homo sapiens, KARPAS-299; in vitro growth inhibition (or induction of apoptosis), cells cultured 3 to 5 days, MTT (CCK8); read-out: IC50 Karpas 299 (NPM-ALK).

Structures are written as SMILES.

For the molecule `CN(C)CCOc1cc2nccc(Oc3ccc(NC(=O)Nc4cc(C(C)(C)C)n[nH]4)c(Cl)c3Cl)c2cc1C(N)=O` [Compound 93, 4-{4-[3-(5-tert-butyl-2H-pyrazol-3-yl)-ureido]-2,3-dichloro-phenoxy}-7-(2-dimethylamino-ethoxy)carboxamide], the IC50 in the assay on Hep3B2 (FGFR3/4+++) was 9.84 nM; in the assay with KCL-22 (BCR-ABL), 6.12 nM; in the assay with KATO III (FGFR2 amp) it was 3.53 nM; in the assay with MOLM-13 (FLT3-ITD), 10.3 nM; with H1703 (PDGFRa amp) it was 79.3 nM; in the assay on Kasumi-1 (KIT N822K) it was 8.29 nM. Besides, the IC50 with H1581 (FGFR1 amp) is 210 nM; in the assay with Karpas 299 (NPM-ALK) it was 178 nM.
In the case of `CNC(=O)c1cc2c(Oc3ccc(NC(=O)Nc4cc(C(C)(C)C)nn4C)c(C)c3)ccnc2cc1OC` [Compound 50, 4-{4-[3-(5-tert-butyl-2-methyl-2H-pyrazol-3-yl)-ureido]-3-methyl-phenoxy}-7-methoxy quinolin-6-carboxylate acid methylamide], the IC50 in the assay with Hep3B2 (FGFR3/4+++) was determined as 96.6 nM; in the assay with KCL-22 (BCR-ABL), 90 nM; in the assay on KATO III (FGFR2 amp) it was 0.31 nM; in the assay with MOLM-13 (FLT3-ITD), 16.2 nM; in the assay on H1703 (PDGFRa amp), 14.5 nM; with Kasumi-1 (KIT N822K), 65.6 nM. The IC50 in the assay on H1581 (FGFR1 amp) came out at 59.5 nM; with Karpas 299 (NPM-ALK), 795 nM.
Consider `C=CC(=O)Nc1cc2c(Oc3ccc(NC(=O)Nc4cc(C(C)(C)C)n[nH]4)cc3Cl)ccnc2cc1OC` [Compound 105, N-(4-{4-[3-(5-tert-butyl-2H-pyrazol-3-yl)-ureido]-2-chloro-phenoxy}-7-methoxy-quinolin-6-yl)-acrylamide], for which the IC50 amounted to 83.4 nM in the assay on Hep3B2 (FGFR3/4+++); 45.3 nM in the assay on KCL-22 (BCR-ABL); 4.07 nM in the assay on KATO III (FGFR2 amp); 0.59 nM in the assay on MOLM-13 (FLT3-ITD); 71.9 nM with H1703 (PDGFRa amp); 57.3 nM in the assay on Kasumi-1 (KIT N822K). The IC50 in the assay with H1581 (FGFR1 amp) was determined as 39.6 nM; in the assay with Karpas 299 (NPM-ALK) it was 187 nM.
For `CNC(=O)c1cc2c(Oc3ccc(NC(=O)Nc4cc(C(C)(C)C)n[nH]4)c(Cl)c3)ccnc2cc1OCCOC` [Compound 58, 4-{4-[3-(5-tert-butyl-2H-pyrazol-3-yl)-ureido]-3-chloro-phenoxy}-7-(2-methoxy-ethoxy)-quinolin-6-carboxylic acid methylamide], the IC50 in the assay with Hep3B2 (FGFR3/4+++) stood at 18.2 nM; in the assay on KCL-22 (BCR-ABL) it was 3.11 nM; with KATO III (FGFR2 amp) it was 0.58 nM; with MOLM-13 (FLT3-ITD), 2.33 nM; in the assay on H1703 (PDGFRa amp) it was 14.8 nM; in the assay with Kasumi-1 (KIT N822K) it was 10.3 nM. Moreover, the IC50 in the assay on H1581 (FGFR1 amp) is 5.5 nM; with Karpas 299 (NPM-ALK), 417 nM.
For the molecule `COc1cc2nccc(Oc3ccc(N(C)C(=O)Nc4cc(C(C)(C)C)on4)cc3)c2cc1C(N)=O` [Compound 11, 4-{4-[3-(5-tert-butyl-isoxazol-3-yl)-1-methyl-ureido]-phenoxy}-7-methoxyquinolin-6-carboxamide], the IC50 worked out at 677 nM in the assay with Hep3B2 (FGFR3/4+++); 28.1 nM in the assay on KCL-22 (BCR-ABL); 12.1 nM in the assay with KATO III (FGFR2 amp); 2.41 nM in the assay with MOLM-13 (FLT3-ITD); 20.4 nM with H1703 (PDGFRa amp); 89.8 nM in the assay on Kasumi-1 (KIT N822K). Further, the IC50 was 270 nM in the assay on H1581 (FGFR1 amp) and over 1000 nM in the assay with Karpas 299 (NPM-ALK).
Consider `COc1cc2nccc(Nc3ccc(NC(=O)Nc4cc(C(C)(C)C)on4)cc3C)c2cc1C(N)=O` [Compound 99, 4-{4-[3-(5-tert-butyl-isoxazol-3-yl)-ureido]-2-methyl-phenylamino}-7-methoxy-quinolin-6-carboxamide], for which the IC50 in the assay with Hep3B2 (FGFR3/4+++) was determined as 862 nM; in the assay on KCL-22 (BCR-ABL) it was 264 nM; in the assay with KATO III (FGFR2 amp), 37.8 nM; in the assay on MOLM-13 (FLT3-ITD), 3.41 nM; in the assay with H1703 (PDGFRa amp), 128 nM; in the assay with Kasumi-1 (KIT N822K), 355 nM. Moreover, the values for the IC50 in the assay with H1581 (FGFR1 amp) and with Karpas 299 (NPM-ALK) were 294 nM and over 1000 nM, respectively.
On to `COc1cc2nccc(Oc3ccc(NC(=O)Nc4cc(C(C)(C)C)nn4C4CCCC4)c(Cl)c3)c2cc1C(N)=O` [Compound 30, 4-{4-[3-(5-tert-butyl-2-cyclopentyl-2H-pyrazol-3-yl)-ureido]-3-chloro-phenoxy}-7-methoxyquinolin-6-carboxamide], for which the IC50 in the assay on Hep3B2 (FGFR3/4+++) amounted to 26.1 nM; with KCL-22 (BCR-ABL), 22 nM; in the assay on KATO III (FGFR2 amp), 1.62 nM; in the assay on MOLM-13 (FLT3-ITD), 17.8 nM; in the assay with H1703 (PDGFRa amp), 16.7 nM; in the assay with Kasumi-1 (KIT N822K), 23.7 nM. The results for the IC50 with H1581 (FGFR1 amp) and in the assay with Karpas 299 (NPM-ALK) were 15.5 nM and 276 nM, respectively.
In the case of `CNC(=O)c1cc2c(Oc3ccc(NC(=O)Nc4cc(C(C)(C)C)n[nH]4)c(C)c3)ccnc2cc1OC` [Compound 49, 4-{4-[3-(5-tert-butyl-2H-pyrazol-3-yl)-ureido]-3-methyl-phenoxy}-7-methoxyquinolin-6-carboxylate acid methylamide], the IC50 in the assay with Hep3B2 (FGFR3/4+++) worked out at 93.1 nM; in the assay with KCL-22 (BCR-ABL), 31.2 nM; with KATO III (FGFR2 amp), 2.93 nM; in the assay with MOLM-13 (FLT3-ITD), 18.1 nM; in the assay on H1703 (PDGFRa amp), 15.4 nM; in the assay with Kasumi-1 (KIT N822K), 100 nM. Also, the IC50 in the assay on H1581 (FGFR1 amp) is 63.1 nM; in the assay on Karpas 299 (NPM-ALK), over 1000 nM.
Regarding `CNC(=O)c1cc2c(Oc3ccc(NC(=O)Nc4cc(C(C)(C)C)nn4C)c(Cl)c3Cl)ccnc2cc1OC` [Compound 57, 4-{4-[3-(5-tert-butyl-2-methyl-2H-pyrazol-3-yl)-ureido]-2,3-dichloro-phenoxy}-7-methoxyquinolin-6-carboxylic acid methylamide], the IC50 amounted to 21.9 nM with Hep3B2 (FGFR3/4+++); 2.58 nM in the assay with KCL-22 (BCR-ABL); 0.41 nM in the assay with KATO III (FGFR2 amp); 1.29 nM with MOLM-13 (FLT3-ITD); 11.7 nM with H1703 (PDGFRa amp); 3 nM with Kasumi-1 (KIT N822K). For the same molecule, the IC50 with H1581 (FGFR1 amp) is 2.85 nM; with Karpas 299 (NPM-ALK) it was 69.3 nM.
On to `COc1cc2nccc(Oc3ccc(NC(=O)N(C)c4cc(C(C)(C)C)on4)c(Cl)c3)c2cc1C(N)=O` [Compound 12, 4-{4-[3-(5-tert-butyl-isoxazol-3-yl)-3-methyl-ureido]-3-chloro-phenoxy}-7-methoxyquinolin-6-carboxamide], for which the IC50 in the assay on Hep3B2 (FGFR3/4+++) worked out at 791 nM; in the assay with KCL-22 (BCR-ABL) it was 114 nM; with KATO III (FGFR2 amp), 103 nM; in the assay with MOLM-13 (FLT3-ITD), 122 nM; with H1703 (PDGFRa amp), 139 nM; in the assay on Kasumi-1 (KIT N822K), 389 nM. Further, the IC50 in the assay with H1581 (FGFR1 amp) was 584 nM; in the assay with Karpas 299 (NPM-ALK), over 1000 nM.
In the case of `CCn1nc(C(C)(C)C)cc1NC(=O)Nc1ccc(Oc2ccnc3cc(OC)c(C(N)=O)cc23)cc1Cl` [Compound 27, 4-{4-[3-(5-tert-butyl-2-ethyl-2H-pyrazol-3-yl)-ureido]-3-chloro-phenoxy}-7-methoxyquinolin-6-carboxamide], the IC50 with Hep3B2 (FGFR3/4+++) was determined as 11.6 nM; in the assay on KCL-22 (BCR-ABL), 9.23 nM; in the assay on KATO III (FGFR2 amp) it was 0.12 nM; with MOLM-13 (FLT3-ITD), 3.92 nM; in the assay with H1703 (PDGFRa amp), 9.2 nM; with Kasumi-1 (KIT N822K), 8.44 nM. For the same molecule, the IC50 is 9.03 nM in the assay on H1581 (FGFR1 amp) and 351 nM in the assay on Karpas 299 (NPM-ALK).
Take `COc1cc2nccc(Oc3ccc(NC(=O)Nc4cc(C(C)(C)C)nn4CCO)c(Cl)c3)c2cc1C(N)=O` [Compound 32, 4-(4-{3-[5-tert-butyl-2-(2-hydroxy-ethyl)-2H-pyrazol-3-yl]-ureido}-3-chloro-phenoxy)-7-methoxyquinolin-6-carboxamide]: the IC50 turned out to be 56.6 nM in the assay with Hep3B2 (FGFR3/4+++); 163 nM with KCL-22 (BCR-ABL); 0.18 nM in the assay with KATO III (FGFR2 amp); 17.1 nM in the assay on MOLM-13 (FLT3-ITD); 73.2 nM in the assay with H1703 (PDGFRa amp); 132 nM in the assay on Kasumi-1 (KIT N822K). The IC50 in the assay on H1581 (FGFR1 amp) is 35.8 nM; in the assay with Karpas 299 (NPM-ALK) it was 736 nM.
`CC(C)(C)c1cc(NC(=O)Nc2ccc(Oc3ccnc4c(F)cccc34)cc2Cl)no1` [Compound 113, 1-(5-tert-butyl-isoxazol-3-yl)-3-[2-chloro-4-(8-fluoro-quinolin-4-yloxy)-phenyl]-urea]: the IC50 with Hep3B2 (FGFR3/4+++) is over 1000 nM; in the assay on KCL-22 (BCR-ABL) it was over 1000 nM; in the assay with KATO III (FGFR2 amp) it was 498 nM; in the assay on MOLM-13 (FLT3-ITD) it was over 500 nM; with H1703 (PDGFRa amp), 568 nM; with Kasumi-1 (KIT N822K), over 1000 nM. The IC50 in the assay with H1581 (FGFR1 amp) and in the assay with Karpas 299 (NPM-ALK) was over 1000 nM each time.
`COc1cc2nccc(Nc3ccc(NC(=O)Nc4cc(C(C)(C)C)n[nH]4)cc3Cl)c2cc1C(N)=O` [Compound 97, 4-{4-[3-(5-tert-butyl-2H-pyrazol-3-yl)-ureido]-2-chloro-phenylamino}-7-methoxy-quinolin-6-carboxamide]: the IC50 with Hep3B2 (FGFR3/4+++) was 456 nM; with KCL-22 (BCR-ABL), 122 nM; in the assay on KATO III (FGFR2 amp), 117 nM; in the assay with MOLM-13 (FLT3-ITD) it was 0.8 nM; in the assay on H1703 (PDGFRa amp), 342 nM; with Kasumi-1 (KIT N822K), over 1000 nM. In addition, the IC50 in the assay with H1581 (FGFR1 amp) stood at 254 nM; with Karpas 299 (NPM-ALK) it was 803 nM.
